Reference: patent US20220119354A1, “DIAMINO-SUBSTITUTED PYRIDINES AND PYRIMIDINES AS HERBICIDES” (FMC Corporation, priority 2019, published 2022)

Columns and labels:
Assay type in all cases: in vivo
[1] = test system: barnyardgrass (Echinochloa crus-galli); assay: Test A preemergence, barnyardgrass; conditions: 0 to 100 scale, 0 is no effect, 100 is complete control
Procedure, shortened: (§1)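 Compound, in a non-phytotoxic solvent blend containing surfactant, is sprayed onto soil immediately after sowing or onto young plants (one- to two-leaf, 2–10 cm). After roughly 10 d under greenhouse conditions, injury is judged by eye relative to untreated plants on a 0–100 control scale.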

[2] = test system: kochia (Kochia scoparia); assay: Test A preemergence, kochia; conditions: 0 to 100 scale, 0 is no effect, 100 is complete control
Procedure, shortened: as §1

[3] = test system: ragweed (common ragweed, Ambrosia elatior); assay: Test A preemergence, ragweed; conditions: 0 to 100 scale, 0 is no effect, 100 is complete control
Procedure, shortened: as §1

[4] = test system: ryegrass, Italian (Lolium multiflorum); assay: Test A preemergence, Italian ryegrass; conditions: 0 to 100 scale, 0 is no effect, 100 is complete control
Procedure, shortened: as §1

[5] = test system: foxtail, giant (Setaria faberii); assay: Test A preemergence, giant foxtail; conditions: 0 to 100 scale, 0 is no effect, 100 is complete control
Procedure, shortened: as §1

[6] = test system: pigweed (Amaranthus retroflexus); assay: Test A preemergence, pigweed; conditions: 0 to 100 scale, 0 is no effect, 100 is complete control
Procedure, shortened: as §1

[7] = test system: barnyardgrass (Echinochloa crus-galli); assay: Test A postemergence, barnyardgrass; conditions: 0 to 100 scale, 0 no effect, 100 complete control
Procedure, shortened: as §1

[8] = test system: kochia (Kochia scoparia); assay: Test A postemergence, kochia; conditions: 0 to 100 scale, 0 no effect, 100 complete control
Procedure, shortened: as §1

[9] = test system: ragweed (common ragweed, Ambrosia elatior); assay: Test A postemergence, ragweed; conditions: 0 to 100 scale, 0 no effect, 100 complete control
Procedure, shortened: as §1

[10] = test system: ryegrass, Italian (Lolium multiflorum); assay: Test A postemergence, Italian ryegrass; conditions: 0 to 100 scale, 0 no effect, 100 complete control
Procedure, shortened: as §1

[11] = test system: foxtail, giant (Setaria faberii); assay: Test A postemergence, giant foxtail; conditions: 0 to 100 scale, 0 no effect, 100 complete control
Procedure, shortened: as §1

[12] = test system: pigweed (Amaranthus retroflexus); assay: Test A postemergence, pigweed; conditions: 0 to 100 scale, 0 no effect, 100 complete control
Procedure, shortened: as §1

[13] = test system: wheat (Triticum aestivum); assay: Test A postemergence, wheat; conditions: 0 to 100 scale, 0 no effect, 100 complete control
Procedure, shortened: as §1

[14] = test system: corn (Zea mays); assay: Test A postemergence, corn; conditions: 0 to 100 scale, 0 no effect, 100 complete control
Procedure, shortened: as §1

[15] = test system: blackgrass (Alopecurus myosuroides); assay: Test A postemergence, blackgrass; conditions: 0 to 100 scale, 0 no effect, 100 complete control
Procedure, shortened: as §1

[16] = test system: galium (catchweed bedstraw, Galium aparine); assay: Test A postemergence, galium; conditions: 0 to 100 scale, 0 no effect, 100 complete control
Procedure, shortened: as §1

[17] = test system: rice (Oryza sativa); assay: Test B flooded paddy test, rice; conditions: Flood, 250 g ai/ha, applied to paddy water, 2-leaf stage, visual evaluation after 13 to 15 d
Procedure, shortened: (§2)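 Pots flooded to 3 cm above the soil when treated, with test compound added straight to the water and the flood maintained. Treated plants were at the 2-leaf stage and stayed 13–15 d in greenhouse. Response versus untreated controls scored visually from 0 (no effect) to 100 (complete control).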

[18] = test system: sedge, umbrella (small-flower umbrella sedge, Cyperus difformis); assay: Test B flooded paddy test, umbrella sedge; conditions: Flood, 250 g ai/ha, applied to paddy water, 2-leaf stage, visual evaluation after 13 to 15 d
Procedure, shortened: as §2

[19] = test system: ducksalad (Heteranthera limosa); assay: Test B flooded paddy test, ducksalad; conditions: Flood, 250 g ai/ha, applied to paddy water, 2-leaf stage, visual evaluation after 13 to 15 d
Procedure, shortened: as §2

[20] = test system: barnyardgrass (Echinochloa crus-galli); assay: Test B flooded paddy test, barnyardgrass; conditions: Flood, 250 g ai/ha, applied to paddy water, 2-leaf stage, visual evaluation after 13 to 15 d
Procedure, shortened: as §2

Structure (SMILES) | Barnyardgrass plant response rating ([1]; 125 g ai/ha) | Barnyardgrass plant response rating ([1]; 500 g ai/ha) | Kochia plant response rating ([2]; 125 g ai/ha) | Kochia plant response rating ([2]; 500 g ai/ha) | Ragweed plant response rating ([3]; 125 g ai/ha) | Ragweed plant response rating ([3]; 500 g ai/ha) | Ryegrass, Italian plant response rating ([4]; 125 g ai/ha) | Ryegrass, Italian plant response rating ([4]; 500 g ai/ha) | Foxtail, Giant plant response rating ([5]; 125 g ai/ha) | Foxtail, Giant plant response rating ([5]; 500 g ai/ha) | Pigweed plant response rating ([6]; 125 g ai/ha) | Pigweed plant response rating ([6]; 500 g ai/ha) | Plant response rating, Barnyardgrass ([7]; 125 g ai/ha) | Plant response rating, Barnyardgrass ([7]; 500 g ai/ha) | Plant response rating, Kochia ([8]; 125 g ai/ha) | Plant response rating, Kochia ([8]; 500 g ai/ha) | Plant response rating, Ragweed ([9]; 125 g ai/ha) | Plant response rating, Ragweed ([9]; 500 g ai/ha) | Plant response rating, Ryegrass, Italian ([10]; 125 g ai/ha) | Plant response rating, Ryegrass, Italian ([10]; 500 g ai/ha) | other results
Cc1ccc2c(C(C)Nc3ncc(C(F)(F)F)c(N)n3)coc2c1 (stereo not drawn) [Compound 85] | 70 | 100 | 30 | 90 | 90 | 100 | 40 | 50 | 70 | 100 | 100 | 100 | 50 | 80 | 70 | 90 | 50 | 90 | 50 | 60 | Plant response rating, Foxtail, Giant ([11]; 125 g ai/ha): 40; Plant response rating, Foxtail, Giant ([11]; 500 g ai/ha): 90; Plant response rating, Pigweed ([12]; 125 g ai/ha): 90; Plant response rating, Pigweed ([12]; 500 g ai/ha): 10; Plant response rating, Wheat ([13]; 125 g ai/ha): 30; Plant response rating, Wheat ([13]; 500 g ai/ha): 30; Plant response rating, Corn ([14]; 125 g ai/ha): 10; Plant response rating, Corn ([14]; 500 g ai/ha): 40; Plant response rating, Blackgrass ([15]; 125 g ai/ha): 40; Plant response rating, Blackgrass ([15]; 500 g ai/ha): 50; Plant response rating, Galium ([16]; 125 g ai/ha): 80; Plant response rating, Galium ([16]; 500 g ai/ha): 90; Plant response rating, Rice (0 to 100 scale, 0 is no effect, 100 is complete control) [17]: 0; Plant response rating, Sedge, Umbrella (0 to 100 scale, 0 is no effect, 100 is complete control) [18]: 85; Plant response rating, Ducksalad (0 to 100 scale, 0 is no effect, 100 is complete control) [19]: 30; Plant response rating, Barnyardgrass (0 to 100 scale, 0 is no effect, 100 is complete control) [20]: 0
CC(Nc1ncc(C(F)(F)F)c(N)n1)c1cc2ccc(F)c(F)c2s1 (stereo not drawn) [Compound 86] | 70 | 90 | 80 | 100 | 100 | 100 | 20 | 70 | 70 | 100 | 100 | 100 | 40 | 50 | 70 | 90 | 20 | 80 | 0 | 50 | Plant response rating, Foxtail, Giant ([11]; 125 g ai/ha): 60; Plant response rating, Foxtail, Giant ([11]; 500 g ai/ha): 60; Plant response rating, Pigweed ([12]; 125 g ai/ha): 90; Plant response rating, Pigweed ([12]; 500 g ai/ha): 100; Plant response rating, Wheat ([13]; 125 g ai/ha): 0; Plant response rating, Wheat ([13]; 500 g ai/ha): 0; Plant response rating, Corn ([14]; 125 g ai/ha): 0; Plant response rating, Corn ([14]; 500 g ai/ha): 0; Plant response rating, Blackgrass ([15]; 125 g ai/ha): 0; Plant response rating, Blackgrass ([15]; 500 g ai/ha): 10; Plant response rating, Galium ([16]; 125 g ai/ha): 70; Plant response rating, Galium ([16]; 500 g ai/ha): 70; Plant response rating, Rice (0 to 100 scale, 0 is no effect, 100 is complete control) [17]: 0; Plant response rating, Sedge, Umbrella (0 to 100 scale, 0 is no effect, 100 is complete control) [18]: 98; Plant response rating, Ducksalad (0 to 100 scale, 0 is no effect, 100 is complete control) [19]: 75; Plant response rating, Barnyardgrass (0 to 100 scale, 0 is no effect, 100 is complete control) [20]: 60
CC(Nc1nc(N)c(C(F)(F)F)c(C(F)(F)F)n1)c1coc2ccccc12 (stereo not drawn) [Compound 87] | 0 | 0 | 0 | 0 | 0 | 0 | 0 | 0 | 0 | 0 | 0 | 10 | 0 | 0 | 0 | 30 | 0 | 20 | 0 | 0 | Plant response rating, Foxtail, Giant ([11]; 125 g ai/ha): 0; Plant response rating, Foxtail, Giant ([11]; 500 g ai/ha): 0; Plant response rating, Pigweed ([12]; 125 g ai/ha): 0; Plant response rating, Pigweed ([12]; 500 g ai/ha): 60; Plant response rating, Wheat ([13]; 125 g ai/ha): 0; Plant response rating, Wheat ([13]; 500 g ai/ha): 0; Plant response rating, Corn ([14]; 125 g ai/ha): 0; Plant response rating, Corn ([14]; 500 g ai/ha): 0; Plant response rating, Blackgrass ([15]; 125 g ai/ha): 0; Plant response rating, Blackgrass ([15]; 500 g ai/ha): 0; Plant response rating, Galium ([16]; 125 g ai/ha): 0; Plant response rating, Galium ([16]; 500 g ai/ha): 0; Plant response rating, Rice (0 to 100 scale, 0 is no effect, 100 is complete control) [17]: 0; Plant response rating, Sedge, Umbrella (0 to 100 scale, 0 is no effect, 100 is complete control) [18]: 0; Plant response rating, Ducksalad (0 to 100 scale, 0 is no effect, 100 is complete control) [19]: 0; Plant response rating, Barnyardgrass (0 to 100 scale, 0 is no effect, 100 is complete control) [20]: 0
